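Each compound was tested at five concentrations against cells in 96-well plates for 48 hours. At the GI50, growth is halved.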 Activity calls are given as the source filed them. Cut-off read from the data, not from the text of the source: active = GI50 up to about 1.1 µM and inactive = higher.
Tests used:
Assay in all cases: NCI tumour cell line growth inhibition, 48 h
U-251 = tested on: U-251
SW-620 = tested on: SW-620
UACC-62 = tested on: UACC-62
XF498 = tested on: XF498
SK-MEL-5 = tested on: SK-MEL-5
SK-MEL-28 = tested on: SK-MEL-28
CCRF-CEM = tested on: CCRF-CEM
OVCAR-3 = tested on: OVCAR-3
HCT-15 = tested on: HCT-15
SNB-75 = tested on: SNB-75
KM12 = tested on: KM12
ACHN = tested on: ACHN
LXFL 529 = tested on: LXFL 529
RXF 393 = tested on: RXF 393
SF-295 = tested on: SF-295
COLO 205 = tested on: COLO 205
MOLT-4 = tested on: MOLT-4
HT-29 = tested on: HT-29
NCI-H226 = tested on: NCI-H226
NCI-H460 = tested on: NCI-H460
SF-539 = tested on: SF-539
SNB-78 = tested on: SNB-78
OVCAR-5 = tested on: OVCAR-5
TK-10 = tested on: TK-10
SNB-19 = tested on: SNB-19
A498 = tested on: A498
Malme-3M = tested on: Malme-3M
K562 = tested on: K562
IGROV-1 = tested on: IGROV-1
A549 = tested on: A549
SK-OV-3 = tested on: SK-OV-3
DLD-1 = tested on: DLD-1
EKVX = tested on: EKVX
HCC 2998 = tested on: HCC 2998
LOX IMVI = tested on: LOX IMVI
SR = tested on: SR
DMS-273 = tested on: DMS-273
HOP-18 = tested on: HOP-18
M19-MEL = tested on: M19-MEL
DMS-114 = tested on: DMS-114
OVCAR-8 = tested on: OVCAR-8
M14 = tested on: M14
RPMI-8226 = tested on: RPMI-8226
786-0 = tested on: 786-0
NCI-H23 = tested on: NCI-H23
OVCAR-4 = tested on: OVCAR-4
SN12C = tested on: SN12C
UO-31 = tested on: UO-31
RXF 631 = tested on: RXF 631
HL-60 = tested on: HL-60
SF-268 = tested on: SF-268
KM-20L2 = tested on: KM-20L2
SK-MEL-2 = tested on: SK-MEL-2
HOP-62 = tested on: HOP-62
HOP-92 = tested on: HOP-92
CAKI-1 = tested on: CAKI-1
UACC-257 = tested on: UACC-257
HCT-116 = tested on: HCT-116
NCI-H522 = tested on: NCI-H522

CN1CC(=O)N(C)c2[nH]cnc2C1=O
GI50 (U-251): > 100 µM (inactive)
GI50 (SW-620): > 100 µM (inactive)
GI50 (UACC-62): > 100 µM (inactive)
GI50 (XF498): 80.9 µM (inactive)
GI50 (SK-MEL-5): > 100 µM (inactive)
GI50 (SK-MEL-28): > 100 µM (inactive)
GI50 (CCRF-CEM): > 100 µM (inactive)
GI50 (OVCAR-3): > 100 µM (inactive)
GI50 (HCT-15): > 100 µM
GI50 (SNB-75): > 100 µM (inactive)
GI50 (KM12): > 100 µM (inactive)
GI50 (ACHN): > 100 µM (inactive)
GI50 (LXFL 529): > 100 µM (inactive)
GI50 (RXF 393): > 100 µM (inactive)
GI50 (SF-295): > 100 µM (inactive)
GI50 (COLO 205): > 100 µM (inactive)
GI50 (MOLT-4): > 100 µM (inactive)
GI50 (HT-29): > 100 µM (inactive)
GI50 (NCI-H226): > 100 µM (inactive)
GI50 (NCI-H460): > 100 µM (inactive)
GI50 (SF-539): > 100 µM (inactive)
GI50 (SNB-78): > 100 µM (inactive)
GI50 (OVCAR-5): > 100 µM (inactive)
GI50 (TK-10): > 100 µM (inactive)
GI50 (SNB-19): > 100 µM (inactive)
GI50 (A498): > 100 µM (inactive)
GI50 (Malme-3M): > 100 µM (inactive)
GI50 (K562): > 100 µM (inactive)
GI50 (IGROV-1): > 100 µM (inactive)
GI50 (A549): > 100 µM (inactive)
GI50 (SK-OV-3): > 100 µM (inactive)
GI50 (DLD-1): > 100 µM (inactive)
GI50 (EKVX): > 100 µM (inactive)
GI50 (HCC 2998): > 100 µM (inactive)
GI50 (LOX IMVI): > 100 µM (inactive)
GI50 (SR): > 100 µM (inactive)
GI50 (DMS-273): > 100 µM (inactive)
GI50 (HOP-18): > 100 µM (inactive)
GI50 (M19-MEL): > 100 µM (inactive)
GI50 (DMS-114): > 100 µM (inactive)
GI50 (OVCAR-8): > 100 µM (inactive)
GI50 (M14): > 100 µM (inactive)
GI50 (RPMI-8226): > 100 µM (inactive)
GI50 (786-0): > 100 µM (inactive)
GI50 (NCI-H23): > 100 µM (inactive)
GI50 (OVCAR-4): > 100 µM (inactive)
GI50 (SN12C): > 100 µM (inactive)
GI50 (UO-31): > 100 µM (inactive)
GI50 (RXF 631): > 100 µM (inactive)
GI50 (HL-60): > 100 µM (inactive)
GI50 (SF-268): > 100 µM (inactive)

CCOC(=O)Cc1cc(OC)c(OC)cc1/C(Cl)=C(\C=O)c1ccc(OC)c(OC)c1
GI50 (U-251): 17.5 µM (inactive)
GI50 (SW-620): 22.9 µM (inactive)
GI50 (UACC-62): 16.4 µM (inactive)
GI50 (XF498): 20 µM (inactive)
GI50 (SK-MEL-5): 17.1 µM (inactive)
GI50 (SK-MEL-28): 24.2 µM (inactive)
GI50 (CCRF-CEM): > 10 µM (inactive)
GI50 (OVCAR-3): 13.8 µM (inactive)
GI50 (HCT-15): 17.5 µM
GI50 (SNB-75): 32.1 µM (inactive)
GI50 (ACHN): 20.6 µM (inactive)
GI50 (KM-20L2): 15.3 µM (inactive)
GI50 (RXF 393): 57.8 µM (inactive)
GI50 (SF-295): 15.2 µM (inactive)
GI50 (COLO 205): 21.8 µM (inactive)
GI50 (MOLT-4): 16.9 µM (inactive)
GI50 (HT-29): 15.8 µM (inactive)
GI50 (NCI-H460): 3.4 µM (inactive)
GI50 (SNB-78): 22.3 µM (inactive)
GI50 (TK-10): 26 µM (inactive)
GI50 (SNB-19): 34.4 µM (inactive)
GI50 (SK-MEL-2): 19.7 µM (inactive)
GI50 (Malme-3M): 27.4 µM (inactive)
GI50 (K562): 17.2 µM (inactive)
GI50 (IGROV-1): 28.6 µM (inactive)
GI50 (HOP-62): 9.35 µM (inactive)
GI50 (A549): 16.9 µM (inactive)
GI50 (SK-OV-3): 37.1 µM (inactive)
GI50 (DLD-1): 16.3 µM (inactive)
GI50 (EKVX): 22.1 µM (inactive)
GI50 (LOX IMVI): 17.9 µM (inactive)
GI50 (HOP-92): 1 µM (active)
GI50 (CAKI-1): 29.4 µM (inactive)
GI50 (DMS-273): 19.5 µM (inactive)
GI50 (HOP-18): 28.7 µM (inactive)
GI50 (M19-MEL): 22.6 µM (inactive)
GI50 (DMS-114): 18.2 µM (inactive)
GI50 (OVCAR-8): 25.5 µM (inactive)
GI50 (M14): 16.1 µM (inactive)
GI50 (RPMI-8226): 9.75 µM (inactive)
GI50 (NCI-H23): 19.6 µM (inactive)
GI50 (OVCAR-4): 18.5 µM (inactive)
GI50 (SN12C): 15.2 µM (inactive)
GI50 (UO-31): 26.1 µM (inactive)
GI50 (RXF 631): 20.3 µM (inactive)
GI50 (HL-60): 17.3 µM (inactive)
GI50 (UACC-257): 18.9 µM (inactive)
GI50 (HCT-116): 14.4 µM (inactive)

CCN(CC)CCOc1ccc(C(=C2CCCCC2)c2ccc(OCCN(CC)CC)cc2)cc1
GI50 (U-251): 1.64 µM (inactive)
GI50 (SW-620): 1.25 µM (inactive)
GI50 (XF498): 1.07 µM (active)
GI50 (SK-MEL-5): 1.58 µM (inactive)
GI50 (SK-MEL-28): 1.32 µM (inactive)
GI50 (CCRF-CEM): 0.931 µM (active)
GI50 (OVCAR-3): 1.72 µM (inactive)
GI50 (HCT-15): 1.54 µM
GI50 (SNB-75): 1.45 µM (inactive)
GI50 (KM12): 1.27 µM (inactive)
GI50 (ACHN): 1.75 µM (inactive)
GI50 (LXFL 529): 1.69 µM (inactive)
GI50 (KM-20L2): 1.27 µM (inactive)
GI50 (RXF 393): 1.59 µM (inactive)
GI50 (SF-295): 1.85 µM (inactive)
GI50 (COLO 205): 1.34 µM (inactive)
GI50 (MOLT-4): 0.612 µM (active)
GI50 (HT-29): 1.1 µM (active)
GI50 (NCI-H226): 2.15 µM (inactive)
GI50 (NCI-H460): 1.47 µM (inactive)
GI50 (SF-539): 1.55 µM (inactive)
GI50 (OVCAR-5): 1.79 µM (inactive)
GI50 (TK-10): 1.5 µM (inactive)
GI50 (SNB-19): 1.73 µM (inactive)
GI50 (SK-MEL-2): 1.93 µM (inactive)
GI50 (A498): 1.78 µM (inactive)
GI50 (Malme-3M): 1.72 µM (inactive)
GI50 (K562): 0.267 µM (active)
GI50 (IGROV-1): 1.71 µM (inactive)
GI50 (NCI-H522): 1.76 µM (inactive)
GI50 (HOP-62): 1.77 µM (inactive)
GI50 (A549): 1.62 µM (inactive)
GI50 (SK-OV-3): 1.87 µM (inactive)
GI50 (DLD-1): 1.93 µM (inactive)
GI50 (EKVX): 1.74 µM (inactive)
GI50 (HCC 2998): 1.3 µM (inactive)
GI50 (LOX IMVI): 1.23 µM (inactive)
GI50 (HOP-92): 2.02 µM (inactive)
GI50 (CAKI-1): 1.96 µM (inactive)
GI50 (DMS-273): 1.52 µM (inactive)
GI50 (HOP-18): 2.89 µM (inactive)
GI50 (M19-MEL): 1.71 µM (inactive)
GI50 (OVCAR-8): 1.73 µM (inactive)
GI50 (M14): 1.55 µM (inactive)
GI50 (RPMI-8226): 0.7 µM (active)
GI50 (786-0): 1.39 µM (inactive)
GI50 (NCI-H23): 1.86 µM (inactive)
GI50 (OVCAR-4): 2.31 µM (inactive)
GI50 (SN12C): 1.66 µM (inactive)
GI50 (UO-31): 1.59 µM (inactive)
GI50 (RXF 631): 1.46 µM (inactive)
GI50 (HL-60): 0.299 µM (active)
GI50 (UACC-257): 1.87 µM (inactive)
GI50 (SF-268): 1.68 µM (inactive)
GI50 (HCT-116): 1.25 µM (inactive)
